Laboratory results taken from paper PMC4729767 (Theranostics, 2016).

Columns and labels:
[1] = In vitro drug release by dialysis; type: physicochemical; details: dialysis (MWCO 8-14 kDa), PBS pH 7.4 with 0.1% Tween 80, 37 °C, 48 h, HPLC, n = 3
[2] = test system: C6 cells; assay: Annexin V-FITC/PI apoptosis study; type: cell-based, murine; details: PTX 1 μg/mL, 24 h, flow cytometer, n = 3, mean ± SD
[3] = test system: intracranial C6 glioma bearing mice; assay: Anti-glioma efficacy; type: in vivo, Balb/c mice; details: versus Saline; PTX 3 mg/kg i.v. x 6; n = 9

SMILES: CC(=O)O[C@H]1C(=O)[C@@]2(C)[C@H]([C@H](OC(=O)c3ccccc3)[C@]3(O)C[C@H](OC(=O)[C@H](O)[C@@H](NC(=O)c4ccccc4)c4ccccc4)C(C)=C1C3(C)C)[C@]1(OC(C)=O)CO[C@@H]1C[C@@H]2O [free PTX, Paclitaxel]
- PTX release behavior [1]: ≤ 8 h
- apoptosis and necrosis rates of C6 cells [2]: 75.65 ± 1.77%
- Increased survival time [3]: 53%
